Values after ≈ are worked out from the molar mass of the structure shown. Like-named read-outs stand apart in the source and are kept apart here.
Assays:
[1] = system: AGE formation; test: Bovine serum albumin-methylglyoxal analysis, AGE formation (intermediate stage); type: biochemical
Procedure: (2) Bovine Serum Albumin—Methylglyoxal Analysis with Respect to AGE Formation (Intermediate Stage)
Bovine serum albumin (50 mg/mL) was incubated with methylglyoxal (100 mM) in a sodium phosphate buffer ([…], pH 7.4) at 37° C. for 24 hours in the presence of various concentrations of compounds (including a control group).
All reagents and samples were sterilized by filtration through […] membrane filters. Fluorescence intensity was measured at an excitation wavelength of 355 nm and an emission wavelength of 460 nm using a luminescence spectrometer LS50B (Perkin-Elmer Ltd., Buckinghamshire, England) (Wu & Yen, 2005). The test was conducted using aminoguanidine as a positive control group. The concentration of each test sample showing 50% inhibitory activity (IC50) was estimated from the least squares regression line of logarithmic concentrations plotted against the residual activity.

[2] = system: crosslinking of AGEs; test: N-acetyl-glycyl-lysine-methyl ester D-ribose assay, crosslinking of AGEs (late stage); type: biochemical; details: for IC50: read-out: IC50 (AGE crosslinking, late stage)
Procedure: (3) N-acetyl-glycyl-lysine-methyl ester D-ribose assay on crosslinking of AGEs (late stage)
This test was used to evaluate the ability of the sample to inhibit crosslinking of GK peptides in the presence of D-ribose using the method described by Rahbar et al. (1999). The GK peptide (26.7 mg/mL) was incubated with D-ribose (200 mg/mL) under aseptic conditions in sodium phosphate buffer (0.5 M, pH 7.4) at 37° C. for 24 hours. The synthesized compound was added to the model system at a final concentration of 1 mM, excluding the aminoguanidine used at 10 mM and 50 mM. At the end of the incubation period, fluorescence intensity was measured at an excitation wavelength of 335 nm and an emission wavelength of 460 nm.

[3] = Solubility analysis in distilled water (HPLC); type: physicochemical; details: for solubility in water, times higher than Comparative Example 1: versus Comparative Example 1
Procedure: The chrysin and derivatives thereof were dissolved in distilled water and sonicated for 1 hour to maximize solubility and incubated at 37° C. After sonication, undissolved samples were removed by centrifugation (7000 g, 37° C., 5 min). The concentration of the sample was analyzed by HPLC by diluting the supernatant with methanol and filtering through a 0.45 μm disposable syringe filter (Advantec, Dublin, Calif., USA).

[4] = system: formation of Amadori compound; test: Hemoglobin-δ-gluconolactone assay, formation of Amadori compound (initial stage); type: biochemical, human; details: for initial inhibitory activity, times higher than the positive control: versus positive control group (aminoguanidine)
Procedure: (1) Analysis of Hemoglobin-δ-Gluconolactone with Respect to Formation of Amadori Compound (Initial Stage)
Evaluation of the initial stage of protein glycosylation was determined by δ-gluconolactone assay (Rahbar et al., 1999). Briefly, fresh human blood (50 mg/mL) was cultured with glucose (144 mg/mL) in a phosphate buffer (pH 7.4) containing 0.2 g/L of NaN3 under conditions of […] at 37° C. for 7 days.
In certain experiments, an indicated sample was added in a concentration range of 0.01 to 1 mM to a model system. Fluorescence of the sample was measured at maximum excitation and emission values of 355 nm and 460 nm, respectively. The test was conducted using aminoguanidine, a known inhibitor, as a positive control group.

[5] = system: RAW 264.7 cells; test: NO production in LPS-induced RAW 264.7 cells (Griess reagent); type: cell-based; details: 24 hours, FIG. 1A
Procedure: The cytotoxicity of chrysin and derivatives thereof in RAW 264.7 cells was investigated using a MTS assay kit. Cells (1.6×10^4/well) were cultured in 96-well plates and treated with samples (10, 25 and 100 μM) for 12, 24, 48 and 72 hours. After culture, a MTS solution was incubated at 20 μL/well at 37° C. in a humidified 5% CO2 atmosphere for 90 minutes. The optical density at 490 nm was measured three times using an EL-800 universal microplate reader (Bio-Tek Instrument Inc., Winooski, USA). The cell viability of a untreated group was set at 100%. RAW 264.7 cells were seeded at a density of 4×10^5 cells/well on a 12-well plate and incubated with LPS (1 μg/mL) and samples of various concentrations for 24 hours. The concentration of […] (NO) in the medium was measured using a Griess reagent system described by the manufacturer. The production of NO was measured at 570 nm using an EL-800 Universal microplate reader (Bio-Tek Instrument Inc., Winooski, USA) and compared with the nitrite standard calibration curve.

| IC50 [2] [µM] | solubility at 1 h ([3]; distilled water, water, thermodynamic from solid, 37° C.) [µM] | SMILES | activity against AGE formation, times higher than the positive control group ([1]; versus aminoguanidine) [times] | inhibitory activity (late stage) ([2]; at a concentration of 10.0 mg/mL) | Solubility in water ([3]; 37° C.) [µM] | IC50 [1] [µM] | initial inhibitory activity, times higher than the positive control [4] [times] | solubility in water, times higher than Comparative Example 1 [3] [times] | inhibitory activity against formation of the Amadori compound, times higher than chrysin ([4]; versus chrysin) [times] | IC50 ([2]; unit inferred) [µM] | effect on NO production [5] |
| --- | --- | --- | --- | --- | --- | --- | --- | --- | --- | --- | --- |
| – | – | O=c1cc(-c2ccccc2)oc2cc(O)cc(O)c12 [Comparative Example 1, 5,7-dihydroxy-2-phenyl-4H-chromen-4-one, reference compound] | 5.48 | did not exhibit inhibitory activity | 30 (≈ 7.63 µg/mL) | – | – | – | – | – | – |
| 1900 | 30 (≈ 2.22 µg/mL) | N=C(N)NN [Positive control group (Aminoguanidine), aminoguanidine, reference compound] | – | – | – | 137 | – | – | – | – | – |
| – | – | CC(=O)Oc1cc(O)c2c(=O)cc(-c3ccccc3)oc2c1 [Synthesis Example 1, 5-hydroxy-4-oxo-2-phenyl-4H-chromen-7-yl acetate] | – | – | 86 | 21.6 | 4.66 | 2.87 | – | – | – |
| – | – | CC(=O)Oc1cc(OC(C)=O)c2c(=O)cc(-c3ccccc3)oc2c1 [Synthesis Example 2, 4-oxo-2-phenyl-4H-chromen-5,7-diyl diacetate] | – | – | 265 | 0.91 | 422.07 | 8.83 | 66.96 | 22.3 | inhibited NO in a concentration-dependent manner |
| – | – | COc1cc(OC)c2c(=O)cc(-c3ccccc3)oc2c1 [Synthesis Example 5, 5,7-dimethoxy-2-phenyl-4H-chromen-4-one] | – | – | – | 41.8 | 13.92 | – | – | 39.9 | – |

— US20220105072A1, “PHARMACEUTICAL COMPOSITION FOR PREVENTING OR TREATING DIABETES COMPLICATIONS COMPRISING NOVEL CHRYSIN DERIVATIVE COMPOUND AS ACTIVE INGREDIENT” (FRONTBIO INC., priority 2018, published 2022)
